For seven molecules, melting point results are on record in patent publication US20240327335A1, “AMIDE COMPOUND HAVING IODOARYL OR IODOHETEROARYL, PREPARATION METHOD THEREFOR AND USE THEREOF” (CARDIOLINK SCIENCE (SHENZHEN) MEDICAL TECHNOLOGY …, priority 2022, published 2024).

The term melting point denotes the temperature of the solid-liquid transition.

For `COC(CNC(=O)c1ccc(I)cc1)OC` [Compound I-6], the melting point was in the range of 156 to 158 °C.

Take `COC(CNC(=O)c1ccc(I)cn1)OC` [Compound I-9]: the melting point was 178 to 180 °C.

`O=CCNC(=O)c1cc(I)cc(I)c1I` [Compound I-8] showed a melting point of 90 to 92 °C.

Take `COC(CNC(=O)c1cc(I)cc(I)c1I)OC` [Compound I-1, N-(2,2-dimethoxyethyl)-2,3,5-triiodobenzamide]: the melting point lay within 180 to 182 °C.

`COC(CNC(=O)Cc1cc(I)cc(I)c1I)OC` [Compound I-11] registered a melting point of 172 to 173 °C.

Take `COC(CNC(=O)COc1c(I)cc(I)cc1I)OC` [Compound I-10]: the melting point is 170 to 171 °C.

`COC(CNC(=O)c1cc(I)ccc1I)OC` [Compound I-7] yielded a melting point of 165 to 166 °C.
